Data published in patent US20230287051A1, “INHIBITORS OF COMPLEMENT FACTOR C3 AND THEIR MEDICAL USES” (ZP SPV 3 K/S, priority 2020, published 2023).
Numbered stars: 1 amine (or outer) side, 2 acyl side, 3 side chain; on linkers, the order of the positions; unused ones are H or OH. Bridge positions count the residues as written; N and C are the ends. Square brackets hold non-standard residues; d marks the D form. Side chains are listed from the residue outwards. Peptide text beside a SMILES is read from it. * marks the point of attachment. Trp(1-Me) = Cn1cc(C[C@H](N)C(=O)O)c2ccccc21; C18 diacid = O=C(O)CCCCCCCCCCCCCCCCC(=O)*; γGlu = O=C(O)[C@H](CCC(=O)[*:2])N[*:1]; AEEA = NCCOCCOCC(=O)O; CH2 = C([*:1])[*:2]; Sar = CNCC(=O)O

Tests used:
[1] = test system: classical complement pathway; assay: In vitro haemolysis assay (inhibition of classical complement pathway); format: cell-based; conditions: human serum, sensitized sheep RBC, 30 minutes at 37° C., absorbance at 405 nm, n=>2; read-out: IC50, inhibition of hemolysis
Method in brief: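 Compounds in 9-point serial dilution in Tris/casein buffer pH 7.4 (Ca2+/Mg2+) preincubated 15 min at room temperature with diluted human serum (dilution giving 70-90% maximal haemolysis), then antibody-sensitized sheep RBCs added, 30 min at 37° C. EDTA stop; supernatant haemoglobin read at 405 nm. IC50 from 4PL fit, normalized to controls, n≥2.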

Human C3 = target: T1, Human C3 (Homo sapiens, UniProt P01024); assay: Affinity measurement by surface plasmon resonance with immobilized C3; conditions: SPR, immobilized human C3, 25° C., 1:1 Langmuir binding model, n=>2
T1 construct: purchased Complement tech A113c
Method: Surface plasmon resonance (SPR) was used to characterize peptides with respect to their binding affinity (Kd) for C3.
For interaction experiments, a multi-cycle experiment approach was used and performed using a BiacoreX100™ instrument (GE Healthcare) at 25° C. Peptides were injected in increasing concentration series (5 different concentrations and buffer reference) for 180 seconds at a flow rate of 30 μL/min in a buffer consisting of 50 mM Tris buffer at pH 7.4, with 150 mM NaCl and 0.05% Tween20. This was followed by a dissociation period for 10 min. The C3 surface was regenerated between runs by two consecutive injections of 3 M MgCl2 each for 45 seconds.
Sensorgrams were double-referenced (reference surface, blanks) prior to analysis of the kinetic profiles by globally fitting data to a 1:1 Langmuir binding model to obtain association and dissociation rates for calculation of the equilibrium dissociation constant Kd (Table 3). Each peptide was tested at in at least 2 independent experiments.

Row | Kd (Human C3) | Compound | IC50 [1]
1 | 17 nM | CC[C@H](C)[C@@H]1NC(=O)[C@@H](NC(=O)[C@H](Cc2ccccc2)NC(=O)CNC(=O)[C@H](CO)NC(=O)[C@H](CCC(=O)O)NC(=O)CNC(=O)[C@H](CCC(=O)O)NC(C)=O)CSCSC[C@@H](C(=O)N[C@H](C(=O)N[C@@H](CCC(=O)O)C(=O)NCC(=O)N[C@@H](CCC(=O)O)C(=O)NCCOCCOCC(=O)NCCOCCOCC(=O)N[C@@H](CCCCNC(=O)CC[C@H](NC(=O)CNC(=O)CC[C@H](NC(=O)CCCCCCCCCCCCCCCCC(=O)O)C(=O)O)C(=O)O)C(N)=O)[C@@H](C)O)NC(=O)[C@H](CCCNC(=N)N)NC(=O)[C@H](Cc2c[nH]cn2)NC(=O)[C@H](CCC(=O)O)NC(=O)CN(C)C(=O)[C@H](Cc2c[nH]c3ccccc23)NC(=O)[C@H](CC(=O)O)NC(=O)[C@H](CCC(N)=O)NC(=O)[C@H](Cc2cn(C)c3ccccc23)NC1=O [Compound 27, Ac-EGESGF[C(1)]I[1-Me-Trp]QDW[Sar]EHR[C(1)]TEGE[Peg3][Peg3]-K([17-Carboxy-heptadecanoyl][yGlu]G[yGlu])-NH2] (Ac-EGESGFCI[Trp(1-Me)]QDW[Sar]EHRCTEGE[AEEA][AEEA]K([γGlu-Gly-γGlu-C18 diacid])-NH2; linker 7-17 via CH2) | < 100 nM
2 | 15 nM | CC[C@H](C)[C@@H]1NC(=O)[C@@H](NC(=O)[C@H](Cc2ccccc2)NC(=O)[C@H](C)NC(=O)[C@H](CO)NC(=O)[C@H](CCC(N)=O)NC(=O)CNC(C)=O)CSCSC[C@@H](C(=O)N[C@H](C(=O)N[C@@H](CCC(=O)O)C(=O)NCC(=O)N[C@@H](CCC(=O)O)C(=O)NCCOCCOCC(=O)NCCOCCOCC(=O)N[C@@H](CCCCNC(=O)CC[C@H](NC(=O)CNC(=O)CC[C@H](NC(=O)CCCCCCCCCCCCCCCCC(=O)O)C(=O)O)C(=O)O)C(N)=O)[C@@H](C)O)NC(=O)[C@H](CCCNC(=N)N)NC(=O)[C@H](Cc2c[nH]cn2)NC(=O)[C@H](CCC(=O)O)NC(=O)CN(C)C(=O)[C@H](Cc2c[nH]c3ccccc23)NC(=O)[C@H](CC(=O)O)NC(=O)[C@H](CCC(N)=O)NC(=O)[C@H](Cc2cn(C)c3ccccc23)NC1=O [Compound 28, Ac-GQSAF[C(1)]I[1-Me-Trp]QDW[Sar]EHR[C(1)]TEGE[Peg3][Peg3]-K([17-Carboxy-heptadecanoyl][yGlu]G[yGlu])-NH2] (Ac-GQSAFCI[Trp(1-Me)]QDW[Sar]EHRCTEGE[AEEA][AEEA]K([γGlu-Gly-γGlu-C18 diacid])-NH2; linker 6-16 via CH2) | < 100 nM
3 | 15 nM | CC[C@H](C)[C@@H]1NC(=O)[C@@H](NC(=O)[C@H](Cc2ccccc2)NC(=O)[C@@H](NC(=O)CNC(=O)[C@H](CO)NC(=O)[C@@H](N)CCC(=O)O)C(C)C)CSCSC[C@@H](C(=O)N[C@H](C(=O)N[C@@H](CCC(=O)O)C(=O)NCC(=O)N[C@@H](CCC(=O)O)C(=O)NCCOCCOCC(=O)NCCOCCOCC(=O)N[C@@H](CCCCNC(=O)CC[C@H](NC(=O)CNC(=O)CC[C@H](NC(=O)CCCCCCCCCCCCCCCCC(=O)O)C(=O)O)C(=O)O)C(N)=O)[C@@H](C)O)NC(=O)[C@H](CCCNC(=N)N)NC(=O)[C@H](Cc2c[nH]cn2)NC(=O)[C@H](CCC(=O)O)NC(=O)CN(C)C(=O)[C@H](Cc2c[nH]c3ccccc23)NC(=O)[C@H](CC(=O)O)NC(=O)[C@H](CCC(N)=O)NC(=O)[C@H](Cc2cn(C)c3ccccc23)NC1=O [Compound 29, H-ESGVF[C(1)]I[1-Me-Trp]QDW[Sar]EHR[C(1)]TEGE[Peg3][Peg3]-K([17-Carboxy-heptadecanoyl][yGlu]G[yGlu])-NH2] (H-ESGVFCI[Trp(1-Me)]QDW[Sar]EHRCTEGE[AEEA][AEEA]K([γGlu-Gly-γGlu-C18 diacid])-NH2; linker 6-16 via CH2) | < 100 nM
